The source of these data is patent US12324807B2, “Combination therapy for PI3K-associated disease or disorder” (Cornell University, priority 2018, dated 2025).

Data set [1] concerns KPC K8484 tumors. Description: KPC K8484 allografts treated with BYL-719 alone or combined: tumor response and survival. The data set is classed as in vivo, mice.
For data set [2], the system named is tumor models. Description: drug efficacy of PI3K pathway agents with modulation of glucose metabolism in murine tumor models. The data set is classed as in vivo, mice.
Data set [3] relates to KPC allografts. As to the kind of experiment: KPC allografts treated with BKM120 and OSI-906. The data set is classed as in vivo, mice. Particulars: BKM120 combined with OSI-906, vs either drug alone.
Data set [4] deals with MLL-AF9 driven Acute Myeloid Leukemia. Description: syngeneic model of AML treated with BKM120 and ketogenic diet. It is filed as in vivo, mice. Particulars: BKM120 with ketogenic diet started before or with BKM120. The method, then: For AML studies, 10-12 weeks old male C57BL/6J mice were used for MLL-AF9 Ds-Red AML study (Approved protocol AC-AAAQ5405). For pre-treatment study with MLL-AF9 Ds-Red cells, keto and Keto/BKM group mice were given a ketogenic diet for 10 days prior to injection with MLL-AF9 Ds-Red cells (2×10^5 per mouse in 200 ul) via lateral tail vein. The day after iv injection, the mice were given 0.5% carboxymethyl cellulose (CMC) as vehicle control or BKM120 (37.5 mg/kg) by oral gavage for two weeks (5 out of 7 days). The mice were euthanized after two-week treatment to check the bone marrow for AML progress. The tumor progress was also monitored via IVIS spectrum machine.
For co-current treatment studies with MLL-AF9 Ds-Red cells, the mice were injected with MLL-AF9 Ds-Red cells (2×10^5 per mouse in 200 ul) via lateral tail vein. The day after iv injection, the mice were given vehicle or BKM120 (37.5 mg/kg) by oral gavage for two weeks. The Keto or Keto/BKM group were changed to a ketogenic diet on the same day. The mice were euthanized after two-week treatment to check the bone marrow for AML progress.
To check if Keto/BKM treatment affects the AML engraftment, Keto and Keto/BKM group mice were given a ketogenic diet for 10 days, then treated with vehicle or BKM120 by oral gavage for two weeks. […]

Data set [5] concerns the target SGLT-2 (Homo sapiens (Human), UniProt P31639). Particulars: read-out: IC50 of primary target; from Selleck Chem website; cited from earlier work.
Data set [6] has as its system syngeneic K8484 KPC allografted tumors. Description: glucose/insulin feedback after single dose of BKM120 in mice with KPC allografts. Particulars: pretreatment before a single treatment with BKM120; for insulin released in response to BKM120 (c-peptide): c-peptide after 3 hours; for growth signaling through mTORC1 in the tumor (pS6): tumors harvested at 90 minutes. The data set is classed as in vivo.

In data set [7] the test system is PIK3CA+MYC mutant murine breast tumor allografts, ES-278. Description: ES-278 breast tumor allografts with or without keto diet. It is filed as in vivo, mice. To be noted: combined with ketogenic diet.
Description: For solid tumor studies, Nude (genotype) and C57/BL6 mice were purchased at 8 weeks of age from Jackson laboratories (Bar Harbor, ME).
Data set [8] has as its system IGF1R/INSR. Particulars: from Selleck Chem website; read-out: IC50 of primary target; cited from earlier work.
The test system of data set [9] is AKT1/2/3. Particulars: from Selleck Chem website; read-out: IC50 of primary target; cited from earlier work.
Data set [10] concerns ES272 Pik3ca mutant breast cancer allograft. As to the kind of experiment: Pik3ca mutant breast allografts, ketogenic diet, BYL-719 and exogenous insulin. It is filed as in vivo, mice. To be noted: 0.4 mU insulin 15 minutes after each dose of PI3K inhibitor. The method, then:
To further test whether the improved response to PI3K inhibitors while on a ketogenic diet is a consequence of lowering blood insulin levels, the inventors attempted to “rescue” the PI3K reactivation using exogenous insulin. A cohort of the mice bearing Pik3ca mutant breast allografts were treated with the combination of a ketogenic diet and BYL-719, and then given 0.4 mU of insulin 15 minutes after each dose of PI3K inhibitor (FIG. 4B).

Data set [11] concerns HCT116 PTEN knockout (KO) cells. Description: proliferation with PI3K inhibitors and insulin. The data set is classed as cell-based, Human. To be noted: insulin 10 ng/ml in presence of PI3K inhibitors GDC-0032, BYL-719.
Data set [12] concerns PC-3 prostate adenocarcinoma cells. As to the kind of experiment: proliferation in minimal growth media with BKM120 and insulin. The data set is classed as cell-based. To be noted: insulin 10 ng/ml.
For data set [13], the system named is BT-549 breast cancer cells. The description is as above. It is filed as cell-based, Human. Particulars: insulin 10 ng/ml.
For data set [14], the system named is MDA-MB-468 breast cancer cells. The data set is described as above. The data set is classed as cell-based, Human. Particulars: insulin 10 ng/ml.
For data set [15], the system named is KPC cells. Description: signaling and proliferation of KPC cells with PI3K inhibitor and insulin. It is filed as cell-based, Mouse. As to the method: To test whether or not these spikes in insulin were stimulating PI3K signaling in the context of PI3K inhibition, KPC cells were treated in vitro with the PI3K inhibitors in the presence or absence of 10 ng/ml insulin, the level observed in the mice within 15-30 min after drug administration (FIG. 1D).
For signaling assays, cells were washed 1× in PBS and placed in starvation media (−FBS) for 6-18 hours depending upon cell line and treated 1 hour prior to harvesting with PI3K inhibitors as indicated alone or in combination with insulin 10 minutes prior to harvesting. Three-dimensional culture and dose response experiments of patient derived organoids were run as previously described. In brief, ˜1000 cells were plated in 10 ul of 1:1 matrigel to culture media in 96 well angiogenesis plates and allowed to solidify for 30 min at 37 degrees before 70 ul of culture media was added. Organoids were then treated in triplicate in a log scale dose response and CellTiter-Glo assay (Promega) was run at 96 hours to determine the IC50 values. Knockdown of insulin receptor was achieved using a doxycycline inducible shRNA strategy. For generation of miR-E shRNAs, 97-mer oligonucleotides were purchased (IDT Ultramers) coding for predicted shRNAs using an siRNA predictional tool Splash RNA (see website at splashrna.mskcc.org/).

Data set [16] has as its system KPC allografted tumors. The data set is classed as in vivo. To be noted: insulin added to ketogenic diet plus BYL-719.

For the compound `Cc1nc(NC(=O)N2CCC[C@H]2C(N)=O)sc1-c1ccnc(C(C)(C)C(F)(F)F)c1` [Apelisib, Alpelisib], the “response of KPC allografts” value in data set [1] (BYL-719 combined with metformin, SGLT2i or ketogenic diet, concordant with ability to reduce serum insulin) was “enhanced response of KPC allografts”. Further, the drug efficacy result in data set [2] was “improved drug efficacy”.
Take `Cc1c(CN2CCN(C(=O)[C@H](C)O)CC2)sc2c(N3CCOCC3)nc(-c3cnc(N)nc3)nc12` [Apitolisib]: in data set [2], the drug efficacy result is recorded as “improved drug efficacy”.
With `Nc1cc(C(F)(F)F)c(-c2cc(N3CCOCC3)nc(N3CCOCC3)n2)cn1` [Buparlisib], in data set [2], the drug efficacy result is listed as “improved drug efficacy”. The “growth of KPC allografts” value in [3] was “more effective response on the growth of KPC allografts than either drug alone”. The “efficacy (survival)” value in data set [4] is recorded as “significantly enhanced”.
As to `Cc1ccc([C@@H]2OC(CO)[C@@H](O)C(O)C2O)cc1Cc1ccc(-c2ccc(F)cc2)s1` (some centres unmarked) [Conagliflozin, Canagliflozin], in data set [5], the concentration for half-maximal inhibition (IC50) (in general, the concentration at which inhibition is half-maximal) is 2.2 nM.
In the case of `Cc1ccc([C@@H]2O[C@H](CO)[C@@H](O)[C@H](O)[C@H]2O)cc1Cc1ccc(-c2ccc(F)cc2)s1` [Conagliflozin, Canagliflozin], the overall survival result in [1] (added to treatment with BYL-719, vs BYL-719 alone) is listed as “increases overall survival”. Besides, in [6], the “PI3K inhibitor-induced elevation in blood glucose (hyperglycemia)” value is given as “decreased the resulting hyperglycemia”, the “insulin released in response to BKM120 (c-peptide)” value is recorded as “reduced the total insulin that was released” and the “growth signaling through mTORC1 in the tumor (pS6)” value was “reduced signaling through mTORC1 in the tumor”.
For the compound `COc1c(OCCCN2CCOCC2)ccc2c1N=C(NC(=O)c1cnc(N)nc1)N1CCN=C21` [Copanilisib, Copanlisib], in data set [2], the drug efficacy result is given as “improved drug efficacy”.
With `C[C@]1(O)C[C@@H](c2nc(-c3ccc4ccc(-c5ccccc5)nc4c3)c3c(N)nccn32)C1` [Linsitinib], in [7], the “treatment efficacy (tumor volume)” value is given as “significantly improved”. In addition, the half-maximal inhibitory concentration (IC50) in data set [8] was 35 nM.
As to `NC1(c2ccc(-c3nc4ccn5c(=O)[nH]nc5c4cc3-c3ccccc3)cc2)CCC1` [MK2206], the IC50 in data set [9] is 8 nM.
As for `CS(=O)(=O)N1CCN(Cc2cc3nc(-c4cccc5[nH]ncc45)nc(N4CCOCC4)c3s2)CC1` [Pictilisib], the drug efficacy result in [2] was “improved drug efficacy”.
In the case of `Cc1nc(-c2cn3c(n2)-c2ccc(-c4cnn(C(C)(C)C(N)=O)c4)cc2OCC3)n(C(C)C)n1` [Taselisib], in data set [7], the “treatment efficacy (tumor volume)” value is listed as “significantly improved”. For the same compound, the drug efficacy entry in data set [2] is “improved drug efficacy”.
Consider `CN(C)C(=N)NC(=N)N` [metformin, Metformin], for which, in [6], the “PI3K inhibitor-induced elevation in blood glucose (hyperglycemia)” value is recorded as “only minimal impact”, the “insulin released in response to BKM120 (c-peptide)” value is listed as “only minimal impact” and the “growth signaling through mTORC1 in the tumor (pS6)” value was “only minimal impact”.
For insulin, the “therapeutic benefit of ketogenic diet plus BYL-719” value in data set [10] is “dramatically reduced the therapeutic benefit”. In data set [11], the “proliferation (percent confluence)” value is recorded as “restore normal proliferation”. In addition, the “growth (proliferation)” value in [12], in data set [13] and in [14] was “partially rescued” in each case. Besides, the “PI3K signaling (pAKT, pS6)” value in data set [15] (10 ng/ml insulin in continued presence of PI3K inhibitors) was “partially rescue PI3K signaling”. In [15] (10 ng/ml insulin with BKM120 (1 uM)), the cellular proliferation result was “partial recovery of cellular proliferation”. Further, the tumor growth entry in data set [16] is given as “rescued tumor growth”.
